Reference: patent US6849659B2, “Pharmaceutical composition containing citalopram” (H. Lundbeck A/S, priority 2000, dated 2005)
Counter-ions that a name gives are not always drawn.

Assay: Particle size distribution (Sympatec Helos laser diffraction)
Format: physicochemical
Conditions: for Particle size distribution, quantile 5% / Particle size distribution, quantile 10% / Particle size distribution, quantile 50% (median particle size) / Particle size distribution, quantile 90% / Particle size distribution, quantile 95%: Sympatec Helos
Text: As used herein, “particle size distribution” means the distribution of equivalent spherical diameters as determined by laser diffraction at 1 bar dispersive pressure in a Sympatec Helos equipment. “Median particle size”, correspondingly, means the median of said particle size distribution.

| Structure (SMILES) | Particle size distribution, quantile 5% [μm] | Particle size distribution, quantile 10% [μm] | Particle size distribution, quantile 50% (median particle size) [μm] | Particle size distribution, quantile 90% [μm] | Particle size distribution, quantile 95% [μm] | Particle size (product of the process used for the preparation of citalopram hydrobromide (background)) |
| --- | --- | --- | --- | --- | --- | --- |
| Br.CN(C)CCCC1(c2ccc(F)cc2)OCc2cc(C#N)ccc21 (single isomer, unassigned) [Example 1, Citalopram hydrobromide] | 8.23 | 16.54 | 96.87 | 342.89 | 465.43 | – |
| Br.CN(C)CCCC1(c2ccc(F)cc2)OCc2cc(C#N)ccc21 (single isomer, unassigned) [Example 2, Citalopram hydrobromide] | 6.67 | 11.97 | 52.70 | 352.23 | 549.42 | – |
| Br.CN(C)CCCC1(c2ccc(F)cc2)OCc2cc(C#N)ccc21 (single isomer, unassigned) [Example 3, Citalopram hydrobromide] | 0.82 | 1.19 | 14.04 | 72.27 | 96.96 | – |
| CN(C)CCCC1(c2ccc(F)cc2)OCc2cc(C#N)ccc21 (stereo not shown) [citalopram hydrobromide, reference compound] | – | – | – | – | – | 2-20 μm |
